According to patent US10532065B2, “Bisphosphonic acid derivative and application for same” (NAGASAKI UNIVERSITY, priority 2014, dated 2020):
Where two headings read alike, the source gives them in different places.

Experiments:
Assay type in all cases: cell-based
K562 cells / γδ T cells = test: TNF-α production from γδ T cells stimulated by compound-pretreated K562 cells; details: K562, Erythrocytoma, 4 hr pretreatment, 16 hr with γδ T cells, read-out: TNF-α50
Procedure: (§1) Since the above-mentioned results of Experimental Example confirm that the activity of bisphosphonic acids becomes high by POM esterification in various tumor cells, the TNF-α production induction ability of more number of tumor cells was quantitatively studied. […] Thereto was added a solution (500 μl) of compound 7 obtained by serially diluting 10 mM stock solution 10-fold from 20 μM, or a solution (500 μl) of compound 14 obtained by serially diluting 10 mM stock solution 10-fold from 200 μM, and the cells were suspended well. These conical tubes were stood at 37° C. for 4 hr, and the cells were washed 3 times with 5 ml of culture medium. To these cells was added 500 μl of medium, and the cells were suspended well. […] The cell culture medium was suspended well, and the plate was centrifuged at 1,700 rpm, 4° C. for 2 min and the culture supernatant (150 μl) was taken and placed in another round-bottomed 96 well plate. The plate was frozen at −80° C. overnight, left standing at room temperature for 1 hr, stirred well and 100 μl thereof was subjected to ELISA of TNF-α. The content of TNF-α was calculated from the analytical curve of TNF-α. These were performed in triplicate, and TNF-α50 of bisphosphonic acid POM ester derivative (compound 7) and bisphosphonic acid (compound 14) was calculated and summarized in Table 8.

OST cells = test: OST tumor cell growth inhibition (CellTiterGlo); details: Osteosarcoma, 4 days culture
Procedure: (§2) First, EJ-1, 786-0, MKN1, OST, PC-3, PK-1, LK-2, G-361, TFK-1, MRK-nu-1 were cultured in RPMI1640 medium supplemented with 10% calf serum at 37° C. under 5% CO2 atmosphere while maintaining log phase. The cells were recovered by a conventional EDTA trypsin treatment, and centrifuged at 1,700 rpm, 4° C. for 5 min. The supernatant was removed, and suspended in RPMI1640 medium supplemented with 10% calf serum to 500 cells/50 μl. On the other hand, 10 mM stock solution of compound 7 which is a bisphosphonic acid POM ester derivative was serially diluted 2-fold from 200 pM. In addition, 10 mM stock solution of compound 14 which is bisphosphonic acid was serially diluted 2-fold from 2 mM. Then, the cell suspension (50 μl, 500 cells) and the compound solution (50 μl) were added to a flat-bottomed 96 well plate and cultured at 37° C. under 5% CO2 atmosphere for 4 days. Then, 100 μl of CellTiterGlo solution was added, and the mixture was pipetted 10 strokes, and transferred to a 96 well OptiPlate. After standing at room temperature for 10 min, the luminescence was measured by a luminometer and IC50 value was calculated.

[1] = test system: RAMOS-RA1 cells / γδ T cells; test: TNF-α production from γδ T cells stimulated by compound-pretreated RAMOS-RA1 cells; details: RAMOS-RA1, Burkitt's lymphoma, 4 hr pretreatment, 16 hr with γδ T cells, read-out: TNF-α50
Procedure: as §1

Daudi cells = test: Daudi tumor cell growth inhibition (CellTiterGlo); details: Burkitt's lymphoma, 4 days culture
Procedure: (§3) To quantitatively study an action of compound 7, which is a bisphosphonic acid POM ester derivative, on various hematologic tumor-derived lymphoma and myeloidic leukemia cells, the concentration of a compound that inhibits cell proliferation to half was calculated as IC50, and a direct antitumor effect was studied from the value thereof. […] First, MOLT-4, THP-1, SCC-3, PEER, RAMOS-RA1, C1R, MOLT-3, Raji, U937, K562, Daudi were cultured in RPMI1640 medium supplemented with 10% calf serum at 37° C. under 5% CO2 atmosphere while maintaining log phase. The cells were recovered, and centrifuged at 1,700 rpm, 4° C. for 5 min. The supernatant was removed, and suspended in RPMI1640 medium supplemented with 10% calf serum to 500 cells/50 μl. On the other hand, 10 mM stock solution of compound 7 which is a bisphosphonic acid POM ester derivative was serially diluted 2-fold from 200 μM. In addition, 10 mM stock solution of compound 14 which is bisphosphonic acid was serially diluted 2-fold from 2 mM. Then, the cell suspension (50 μl, 500 cells) and the compound solution (50 μl) were added to a flat-bottomed 96 well plate and cultured at 37° C. under 5% CO2 atmosphere for 4 days. Then, 100 μl of CellTiterGlo solution was added, and the mixture was pipetted 10 strokes, and transferred to a 96 well OptiPlate. […]

PEER cells / γδ T cells = test: TNF-α production from γδ T cells stimulated by compound-pretreated PEER cells; details: T cell acute lymphocytic leukemia, 4 hr pretreatment, 16 hr with γδ T cells, read-out: TNF-α50
Procedure: as §1

[2] = test system: MRK-nu-1 cells / γδ T cells; test: TNF-α production from γδ T cells stimulated by compound-pretreated MRK-nu-1 cells; details: MRK-nu-1, Mammary carcinoma, 4 hr pretreatment, 16 hr with γδ T cells, read-out: TNF-α50
Procedure: as §1

C1R cells = test: C1R tumor cell growth inhibition (CellTiterGlo); details: B cell lymphoma, 4 days culture
Procedure: as §3

SCC-3 cells / γδ T cells = test: TNF-α production from γδ T cells stimulated by compound-pretreated SCC-3 cells; details: SCC-3, Non-Hodgkin's lymphoma, 4 hr pretreatment, 16 hr with γδ T cells, read-out: TNF-α50
Procedure: as §1

LK-2 cells / γδ T cells = test: TNF-α production from γδ T cells stimulated by compound-pretreated LK-2 cells; details: LK-2, Lung cancer, 4 hr pretreatment, 16 hr with γδ T cells, read-out: TNF-α50
Procedure: as §1

MOLT-4 cells = test: MOLT-4 tumor cell growth inhibition (CellTiterGlo); details: MOLT-4, Acute lymphoblastic leukemia, 4 days culture
Procedure: as §3

786-0 cells = test: 786-0 tumor cell growth inhibition (CellTiterGlo); details: 786-0, Renal cell carcinoma, 4 days culture
Procedure: as §2

MRK-nu-1 cells = test: MRK-nu-1 tumor cell growth inhibition (CellTiterGlo); details: MRK-nu-1, Mammary carcinoma, 4 days culture
Procedure: as §2

TFK-1 cells / γδ T cells = test: TNF-α production from γδ T cells stimulated by compound-pretreated TFK-1 cells; details: TFK-1, Cholangiocarcinoma, 4 hr pretreatment, 16 hr with γδ T cells, read-out: TNF-α50
Procedure: as §1

MOLT-3 cells = test: MOLT-3 tumor cell growth inhibition (CellTiterGlo); details: MOLT-3, Acute lymphoblastic leukemia, 4 days culture
Procedure: as §3

EJ-1 cells = test: EJ-1 cell growth inhibition (direct antitumor action, CellTiterGlo); details: for IC50: EJ-1 (bladder cancer) growth inhibition, 4 days culture
Method in brief: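 EJ-1 cells run as in the earlier U937 protocol, with cells recovered by conventional EDTA-trypsin treatment. POM ester derivatives were tested side by side with the parent bisphosphonic acids for direct growth inhibition, read by CellTiterGlo.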

U937 cells / γδ T cells = test: TNF-α production from γδ T cells stimulated by compound-pretreated U937 cells; details: U937, Histiocytic lymphoma, 4 hr pretreatment, 16 hr with γδ T cells, read-out: TNF-α50
Procedure: as §1

MKN1 cells = test: MKN1 tumor cell growth inhibition (CellTiterGlo); details: MKN1, Gastric cancer, 4 days culture
Procedure: as §2

[3] = test system: HMC-1-8 cells / γδ T cells; test: TNF-α production from γδ T cells stimulated by compound-pretreated HMC-1-8 cells; details: HMC-1-8, Mammary carcinoma, 4 hr pretreatment, 16 hr with γδ T cells, read-out: TNF-α50
Procedure: as §1

THP-1 cells / γδ T cells = test: TNF-α production from γδ T cells stimulated by compound-pretreated THP-1 cells; details: THP-1, Acute monocytic leukemia, 4 hr pretreatment, 16 hr with γδ T cells, read-out: TNF-α50
Procedure: as §1

PC-3 cells / γδ T cells = test: TNF-α production from γδ T cells stimulated by compound-pretreated PC-3 cells; details: PC-3, Prostate cancer, 4 hr pretreatment, 16 hr with γδ T cells, read-out: TNF-α50
Procedure: as §1

[4] = test system: YMB-1-E cells / γδ T cells; test: TNF-α production from γδ T cells stimulated by compound-pretreated YMB-1-E cells; details: Mammary carcinoma, 4 hr pretreatment, 16 hr with γδ T cells, read-out: TNF-α50
Procedure: as §1

CC(C)(C)C(=O)OCOP(=O)(OCOC(=O)C(C)(C)C)C(CNc1nccs1)P(=O)(OCOC(=O)C(C)(C)C)OCOC(=O)C(C)(C)C [Compound 7, tetrakispivaloyloxymethyl 2-(thiazol-2-ylamino) ethylidene-1,1-bisphosphonate]
EC50 (K562 cells / γδ T cells): 80 nM | IC50 (OST cells): 810 nM | EC50 [1]: 140 nM | IC50 (Daudi cells): 430 nM | EC50 (PEER cells / γδ T cells): 83 nM | EC50 [2]: 180 nM | IC50 (C1R cells): 78 nM | EC50 (SCC-3 cells / γδ T cells): 81 nM | EC50 (LK-2 cells / γδ T cells): 97 nM | IC50 (MOLT-4 cells): 160 nM | IC50 (786-0 cells): 880 nM | IC50 (MRK-nu-1 cells): 740 nM | EC50 (TFK-1 cells / γδ T cells): 66 nM | IC50 (MOLT-3 cells): 130 nM | IC50 (EJ-1 cells): 26 nM | direct antitumor activity (in words) (EJ-1 cells; EJ-1 growth inhibition): particularly high activity | EC50 (U937 cells / γδ T cells): 60 nM | IC50 (MKN1 cells): 1200 nM | EC50 [3]: 920 nM | EC50 (THP-1 cells / γδ T cells): 300 nM | EC50 (PC-3 cells / γδ T cells): 65 nM | EC50 [4]: 630 nM

O=P(O)(O)C(CNc1nccs1)P(=O)(O)O [Compound 14, 2-(thiazol-2-ylamino)ethylidene-1,1-bisphosphonic Acid, reference compound]
EC50 (K562 cells / γδ T cells; Homo sapiens): > 100000 nM | IC50 (OST cells; 96 h): 66000 nM | EC50 ([1]; T-cell): > 100000 nM | IC50 (Daudi cells; Homo sapiens, 96 h): 76000 nM | EC50 (PEER cells / γδ T cells): > 100000 nM | EC50 ([2]; Homo sapiens): > 100000 nM | IC50 (C1R cells; 96 h): 79000 nM | EC50 (SCC-3 cells / γδ T cells; Homo sapiens): > 100000 nM | EC50 (LK-2 cells / γδ T cells; Homo sapiens): > 100000 nM | IC50 (MOLT-4 cells; Homo sapiens, 96 h): 120000 nM | IC50 (786-0 cells; Homo sapiens, 96 h): 25000 nM | IC50 (MRK-nu-1 cells; Homo sapiens, 96 h): 210000 nM | EC50 (TFK-1 cells / γδ T cells; T-cell): > 100000 nM | IC50 (MOLT-3 cells; Homo sapiens, 96 h): 180000 nM | IC50 (EJ-1 cells; EJ1, 96 h): 3700 nM | EC50 (U937 cells / γδ T cells; Homo sapiens, U-937): > 100000 nM | IC50 (MKN1 cells; Homo sapiens, MKN-1, 96 h): 100000 nM | EC50 ([3]; T-cell): > 100000 nM | EC50 (THP-1 cells / γδ T cells; Homo sapiens): > 100000 nM | EC50 (PC-3 cells / γδ T cells; Homo sapiens): 77000 nM | EC50 ([4]; Homo sapiens): > 100000 nM
